Source: US4647672A, “Ascorbate 2-polyphosphate esters and method of making same” (priority 1985, dated 1987)
Like-named read-outs stand apart in the source and are kept apart here. Each block holds one compound with its values, some of them ahead of it.

How the values were obtained:
[1] = system: monkeys; details: Machlin et al; cited from earlier work
[2] = system: guinea pigs; details: Machlin 1976; cited from earlier work
[3] = system: fish; details: fish and possibly crustacea; Halver et al 1975; cited from earlier work
[4] = in vitro; type: in vitro ADME, potato; details: potato, ph 5.0 acetate buffer, pH 5
Description: (§1) It has also been confirmed that behavior of the 2-monophosphate ester of L-ascorbate, ASMP, towards the enzyme phosphatase is different than the behavior of the 2-triphopsphate ester, ASTP.
(§2) ^1 Enzymolysis was done at 25° by stirring 200 micromoles of
(§3) magnesium Lascorbate 2phosphate or ammonium Lascorbate 2triphosphate in
(§4) 100 ml of 0.05 M acetate buffer (pH 5.0) containing about 400 mg of
(§5) bakers' compressed yeast and 2 units of phosphatase (1 unit activity
(§6) hydrolyzes 1 μmole of pnitrophenyl phosphate at pH 4.8 and 37°)
(§7) At a given reaction time, an aliquot (5 ml) was removed, mixed with 5.0 m
(§8) of 12% trichloroacetic acid/4% metaphosphoric acid, and the mixture
(§9) filtered. An aliquot (5 ml) of the filtrate was titrated with
(§10) 2,6dichlorophenolindophenol to a pink endpoint. Blank solutions contained
(§11) all reagents except phosphatase.

[5] = system: Acid Phosphatase from Potato; test: in vitro; type: in vitro ADME
Description: as §1, §2, §3, §4, §5, §6, §7, §8, §9, §10, §11

[6] = Blank reactions without phosphatase: acid-catalyzed release of L-ascorbate in pH 5.0 acetate buffer; type: physicochemical; details: 0.05 m acetate buffer, 25°, read-out: L-Ascorbate Released (%), Blank; for degraded at 0.25 h: reaction time 0.25 h; for degraded at 0.5 h: reaction time 0.50 h; for degraded at 1 h: reaction time 1.0 h; for degraded at 2 h: reaction time 2.0 h; for degraded at 3 h: reaction time 3.0 h; for degraded at 4 h: reaction time 4.0 h; for degraded at 8 h: reaction time 8.0 h; for degraded at 20 h: reaction time 20.0 h; for degraded at 5 h: reaction time 5.0 h
[7] = in vitro; type: in vitro ADME, wheat; details: wheat, wheat flour suspension, pH 5
Description: (§12) When stirred with a dilute suspension of wheat flour at 25° C., ASMP was comletely hydrolyzed in 1 hr. whereas ASTP required approximately 10-20 hr. for 95% hydrolysis.
(§13) ^1 Enzymolysis and titration of Lascorbate released were done as
(§14) described in the footnote to Table I, except the phosphatase was that
(§15) present in wheat flour. Two grams of wheat flour was used in the 100 ml
(§16) enzymolysis reaction mixture.

[8] = system: phosphatase present in wheat flour; test: in vitro; type: in vitro ADME
Description: as §12, §13, §14, §15, §16

[9] = physchem; type: physicochemical; details: for Stability (% Remaining) when reacted with aqueous hydrogen peroxide / remaining at 0.25 h / remaining at 1 h / remaining at 24 h / remaining at 72 h / remaining at 144 h / remaining at 192 h / remaining at 336 h: tris buffer, hydrogen peroxide; for Stability (% Remaining) when reacted with aqueous hydrogen peroxide: pH 7; for remaining at 0.25 h / remaining at 1 h / remaining at 24 h / remaining at 72 h / remaining at 144 h / remaining at 192 h / remaining at 336 h: pH 7, Stability (% Remaining) when reacted with aqueous hydrogen peroxide
Description: When ASTP and ASMP were treated under identical conditions (pH 7, 25° C.) with hydrogen peroxide for 8 days, 77% ASTP remained unreacted while 44% ASMP remained. After 14 days oxidation, 0% ASMP remained compared to 55% ASTP.
^1 Reaction mixture contained 0.05 mL of 30% aqueous hydrogen peroxid
and 200 micromoles of Lascorbate or its 2phosphorylated derivative in 100
ml of 0.05 TRIS buffer (pH 7.0). At a given reaction time, an aliquot (1
ml) of a reaction mixture containing the 2phosphorylated ester was dilute
10 fold with TRIS buffer at pH 7, and the uv absorbance of the mixture
read at 258 nm. To follow loss of Lascorbic acid, an aliquot (1 ml) of th
reaction mixture was diluted with 2% metaphosphoric acid, and the uv
absorbance read at 245 nm.

[10] = Stabilization of L-ascorbate against autoxidation in aqueous medium at pH 7; type: physicochemical
[11] = system: guinea pigs; test: Guinea pig feeding study of vitamin C activity; type: in vivo; details: 15.4 mg per kg of body weight per day orally, equivalent to 5.0 mg of L-ascorbic acid
Description: English short-hair guinea pigs were housed individually in a cage and fed Purina guinea pig ration during a one-week acclimation period. The young pigs (190-250 g) were divided into four groups of 10 animals each. One group was fed a diet devoid of vitamin C (Reid-Briggs guinea pig diet, U.S. Biochemicals, Cleveland, Ohio); the second group received the same diet but supplemented with 5.0 mg of L-ascorbic acid per kg of body weight per day; the third group received 15.4 mg of purified tetrasodium L-ascorbate 2-triphosphate dihydrate (L-ascorbate 2-tri-PO4, purified) per kg of body weight per day; and the fourth group received 15.4 mg of tetra-sodium L-ascorbate 2-triphosphate dihydrate (L-ascorbate 2-tri-PO4, reaction mixture) in admixture with the by-products of the reaction mixture as set forth in Example I, except the small amount of unreacted L-ascorbic acid in the reaction mixture was destroyed by O2 -oxidation (the 15.4 mg of tetrasodium L-ascorbate 2-triphosphate dihydrate is equivalent to 5.0 mg of L-ascorbic acid). The vitamin C was administered orally with a calibrated syringe from solutions kept at 5° C., except the L-ascorbic acid solution was prepared fresh daily. The weights of the animals were recorded daily, and the arithmetic means of each group were calculated and compared in the FIGURE.

[12] = pH 5, Table I, all reagents except phosphatase
[13] = pH 5, Table II, blank without phosphatase (wheat flour)

SMILES: O=C1O[C@H]([C@@H](O)CO)C(O)=C1OS(=O)(=O)O [2-sulfate ester]
vitamin C activity [1]: not an active source of vitamin C | vitamin C activity [2]: not an active source of vitamin C | vitamin C activity [3]: it is in fish

metabolised at 0.25 h [4]: 9.3% | metabolised at 0.5 h [4]: 18.6% | metabolised at 1 h [4]: 35.5% | metabolised at 2 h [4]: 60.5% | metabolised at 3 h [4]: 77.3% | metabolised at 4 h [4]: 88.4% | metabolised at 8 h [4]: 100% | metabolised at 20 h [4]: 100% | rate of release of L-ascorbic acid when treated with purified phosphatase from potato (comparison in words) [5]: much faster than ASTP | degraded at 0.25 h [6, 12]: 0% | degraded at 0.5 h [6, 12]: 0% | degraded at 1 h [6, 12]: 0% | degraded at 2 h [6, 12]: 2.9% | degraded at 3 h [6, 12]: 4.6% | degraded at 4 h [6, 12]: 4.6% | degraded at 8 h [6, 12]: 8.1% | degraded at 20 h [6, 12]: ~15% | degraded at 0.25 h [6, 13]: 0% | degraded at 0.5 h [6, 13]: 0% | degraded at 1 h [6, 13]: 0% | degraded at 2 h [6, 13]: 2.9% | degraded at 3 h [6, 13]: 4.6% | degraded at 4 h [6, 13]: 4.6% | degraded at 5 h [6, 13]: 5.8% | degraded at 20 h [6, 13]: 14.5% | metabolised at 0.25 h [7]: 47.1% | metabolised at 0.5 h [7]: 76.2% | metabolised at 1 h [7]: 100% | metabolised at 2 h [7]: 100% | metabolised at 3 h [7]: 100% | metabolised at 4 h [7]: 100% | metabolised at 5 h [7]: 100% | metabolised at 20 h [7]: 100% | time to complete hydrolysis [8]: 1 h | Stability (% Remaining) when reacted with aqueous hydrogen peroxide ([9]; 192 h): 44.1% | remaining at 0.25 h [9]: 98.7% | remaining at 1 h [9]: 97.1% | remaining at 24 h [9]: 93.9% | remaining at 72 h [9]: 77.7% | remaining at 144 h [9]: 64.1% | remaining at 192 h [9]: 44% | remaining at 336 h [9]: 0%
SMILES: O=C1O[C@H]([C@@H](O)CO)C(O)=C1OP(=O)(O)O [ASMP, L-Ascorbate 2-phosphate]

SMILES: O=C1O[C@H]([C@@H](O)CO)C(O)=C1OP(=O)(O)OP(=O)(O)OP(=O)(O)O [ASTP, L-ascorbate 2-triphosphate]
metabolised at 0.25 h [4]: 0% | metabolised at 0.5 h [4]: 0% | metabolised at 1 h [4]: 0% | metabolised at 2 h [4]: 0% | metabolised at 3 h [4]: 0.4% | metabolised at 4 h [4]: 0.8% | metabolised at 8 h [4]: 3.5% | metabolised at 20 h [4]: 8.5% | degraded at 0.25 h [6, 12]: 0% | degraded at 0.5 h [6, 12]: 0% | degraded at 1 h [6, 12]: 0% | degraded at 2 h [6, 12]: 0% | degraded at 3 h [6, 12]: 0% | degraded at 4 h [6, 12]: 0% | degraded at 8 h [6, 12]: 0% | degraded at 20 h [6, 12]: 0% | degraded at 0.25 h [6, 13]: 0% | degraded at 0.5 h [6, 13]: 0% | degraded at 1 h [6, 13]: 0% | degraded at 2 h [6, 13]: 0% | degraded at 3 h [6, 13]: 0% | degraded at 4 h [6, 13]: 0% | degraded at 5 h [6, 13]: 0% | degraded at 20 h [6, 13]: 0% | metabolised at 0.25 h [7]: 0% | metabolised at 0.5 h [7]: 1.2% | metabolised at 1 h [7]: 3.5% | metabolised at 2 h [7]: 29.6% | metabolised at 3 h [7]: 65.8% | metabolised at 4 h [7]: 86.9% | metabolised at 5 h [7]: 93.1% | metabolised at 20 h [7]: 95% | time required for 95% hydrolysis [8]: 10 to 20 h | stability to oxidation compared with ASMP [9]: more stable to oxidation than ASMP | Stability (% Remaining) when reacted with aqueous hydrogen peroxide ([9]; 336 h): 55.2% | remaining at 0.25 h [9]: 98.6% | remaining at 1 h [9]: 98.3% | remaining at 24 h [9]: 96.7% | remaining at 72 h [9]: 87.6% | remaining at 144 h [9]: 83.3% | remaining at 192 h [9]: 77% | remaining at 336 h [9]: 55% | stabilization of L-ascorbate against autoxidation by the substance [10]: L-ascorbate is stabilized against autoxidation by ASTP

SMILES: O.O.O=C1O[C@H]([C@@H](O)CO)C([O-])=C1OP(=O)([O-])OP(=O)([O-])OP(=O)([O-])O.[Na+].[Na+].[Na+].[Na+] [L-ascorbate 2-tri-PO4, purified, tetrasodium L-ascorbate 2-triphosphate dihydrate]
growth rate (mean body weight) compared with group fed equivalent L-ascorbic acid [11]: grew at a rate equal to that of the group fed an equivalent amount of L-ascorbic acid

time to destruction by hydrogen peroxide ([9]; pH 7, 25° C.): destroyed in less than one hour | remaining at 0.25 h [9]: 56.9% | remaining at 1 h [9]: 0% | remaining at 24 h [9]: 0% | remaining at 72 h [9]: 0% | remaining at 144 h [9]: 0% | remaining at 192 h [9]: 0% | remaining at 336 h [9]: 0%
SMILES: O=C1O[C@H]([C@@H](O)CO)C(O)=C1O [Parent Compd, L-ascorbic acid]
